# From patent publication US20060069157A1, “Method of ameliorating or abrogating the effects of a neurodegenerative disorder, such as Huntington's disease, by sodium butyrate chemotherapy” (U.S. DEPARTMENT OF VETERANS AFFAIRS, priority 2004, published 2006)
# Marks after values point to notes of the source that are not given here.
# System: MKP-1, α-globin, β-globin, preproenkephalin mRNA
# Assay: Northern blotting of brain mRNAs
# Assay type: in vivo, mouse
# Details: percentage of untreated R6/2, normalized to β-actin
# Procedure: Northern Blotting: Two micrograms of total RNA from brain samples of sodium butyrate-treated and untreated R6/2 and wild type mice (n=4 each) were separated on a 1.2% agarose 3% formaldehyde gel in 1× MOPS buffer, electrophoretically transferred to a nylon membrane (Genescreen Ill.) in 1× TAE, and dried in a standard utility oven at 65 βC. cDNA probes were prepared from IMAGE clones (Research Genetics, _-globin 555069, _-globin 318205, MKP-1 4235972), or cDNAs described in previous studies (enkephalin and _-actin probe sequences) (Luthi-Carter et al., 2002). Hybridizations and washes were conducted as previously described (Luthi-Carter et al. 2002). Blots were quantitated using a Molecular Dynamics Phosphorimager and its accompanying ImageQuant software. Signals for target mRNAs were expressed as ratios to _-actin signals (on the same blot), and the data was analyzed by unpaired two-tailed Student's t-test.
structure (smiles),measurement,setting,value
CCCC(=O)[O-].[Na+] [sodium butyrate],"Northern, NaBu Txd R6/2 vs R6/2","MKP-1 mRNA, Cortex, p<0.0001",204%^e
same,"Northern, NaBu Txd R6/2 vs R6/2","Preproenkephalin mRNA, Striatum",98%
same,"Northern, NaBu Txd R6/2 vs R6/2","α-globin mRNA, Cortex, p<0.01",159%^c
same,"Northern, NaBu Txd R6/2 vs R6/2","β-globin mRNA, Cortex, p<0.001",206%^d
